Measured values: US9365481B2, “Cyclohexenone compositions and process for making thereof” (Golden Biotechnology Corporation, priority 2013, dated 2016)

System: H838
Assay: CCK-8 cell viability assay, H838
Type: cell-based, human
Details: H838 cells, statement in words
Protocol: Cell viability was measured using Cell Counting Kit-8 (CCK-8, Enzo Life Sciences, Farmingdale, N.Y.). In this assay, WST-8 is reduced by dehydrogenases in cells to produce a yellow-colored product (formazan), which is soluble in culture medium. The amount of formazan generated is directly proportional to the number of living cells. After treatment, CCK-8 solution was added to each well and incubated for 4 h. The concentration of formazan was measured with a spectrophotometer at an absorbance wavelength of 450 nm. Cell viability was expressed as a percentage of the corresponding control.
To determine whether the cytotoxic effects of Compound 1 correlate with the presence of Ras mutations, cell lines derived from human lung cancer (A549 and H838), liver cancer (HepG2 and Hep3B), and leukemia (K562 and THP-1) with wild-type Ras (H838, Hep3B, and K562) or mutant Ras (A549, HepG2, and THP-1) were used. Cell viability was measured after 48 h of Compound 1 treatment.
Next, the IC50 values for Compound 1 analogs (Compounds 29, 30 and 31), a metabolite (Compound 27), and analogues isolated from filamentous A. camphorata (Compounds 25, 26, 28) were determined in H838 cells. […] (Table 1)

Compound: COC1=C(OCc2ccccc2)C(O)C(C/C=C(\C)CC/C=C(\C)CCC=C(C)C)C(C)C1=O (stereo not shown) [Compound 31, 3-(benzyloxy)-4-hydroxy-2-methoxy-6-methyl-5-[(2E,6E)-3,7,11-trimethyldodeca-2,6,10-trien-1-yl]cyclohex-2-en-1-one]
- cytotoxic effect compared with Compound 1: even more cytotoxic than Compound 1
